Reference: BindingDB's records for doi:10.1074/jbc.M113.519421 (University of Michigan, 2014)

biological target: T1, Serine/threonine-protein phosphatase 5 (Homo sapiens, UniProt P53041); assay: Fluorescence Polarization Assay; settings: pH 7.4; 25 °C
T1 sequence (P53041 whole entry): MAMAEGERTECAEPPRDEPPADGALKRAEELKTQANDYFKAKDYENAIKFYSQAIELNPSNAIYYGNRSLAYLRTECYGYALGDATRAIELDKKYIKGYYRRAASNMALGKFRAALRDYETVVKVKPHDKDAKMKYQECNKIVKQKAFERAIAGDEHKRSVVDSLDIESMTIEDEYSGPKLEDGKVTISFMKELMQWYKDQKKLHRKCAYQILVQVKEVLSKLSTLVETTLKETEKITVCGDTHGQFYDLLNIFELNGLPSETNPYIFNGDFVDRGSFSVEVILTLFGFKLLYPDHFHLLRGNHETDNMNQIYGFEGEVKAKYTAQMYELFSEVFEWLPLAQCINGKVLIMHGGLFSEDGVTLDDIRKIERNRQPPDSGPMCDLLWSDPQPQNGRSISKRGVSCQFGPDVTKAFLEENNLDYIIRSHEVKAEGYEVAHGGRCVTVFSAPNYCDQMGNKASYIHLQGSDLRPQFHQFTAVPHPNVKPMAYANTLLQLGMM
Description: All fluorescence polarization experiments were conducted in 384-well, black, low volume, round-bottomed plates (Corning) using a BioTeck Synergy 2 plate reader (Winooski, VT). For binding experiments, to each well was added increasing amounts of protein and the 5-carboxyfluorescein-labeled Hsp70/90 C-terminal probe/tracer (20 nM). […] The plate was allowed to incubate at room temperature for 5 min toreach equilibrium. […] An equilibrium binding isotherm was constructed by plotting the fluorescence polarization reading as a function of the protein concentration at a fixed concentration of tracer (20 nM).

Question: How did the Kd turn out when `CSCC[C@H](NC(=O)[C@H](CCCNC(=N)N)NC(=O)[C@H](CO)NC(=O)[C@H](C)NC(=O)[C@H](CC(=O)O)NC(=O)[C@@H](N)CCC(=O)O)C(=O)N[C@@H](CCC(=O)O)C(=O)N[C@@H](CCC(=O)O)C(=O)N[C@H](C(=O)N[C@@H](CC(=O)O)C(=O)O)C(C)C` was run?
Answer: 77 nM

Question: How did the Kd turn out when `CC[C@H](C)[C@H](NC(=O)[C@@H](NC(=O)[C@@H]1CCCN1C(=O)CNC(=O)[C@H](CO)NC(=O)[C@@H](N)CO)[C@@H](C)O)C(=O)N[C@@H](CCC(=O)O)C(=O)N[C@@H](CCC(=O)O)C(=O)N[C@H](C(=O)N[C@@H](CC(=O)O)C(=O)O)C(C)C` was run?
Answer: 1060 nM

Question: With `CSCC[C@H](NC(=O)[C@@H](NC(=O)[C@@H]1CCCN1C(=O)CNC(=O)[C@H](CO)NC(=O)CN)[C@@H](C)O)C(=O)N[C@@H](CCC(=O)O)C(=O)N[C@@H](CCC(=O)O)C(=O)N[C@H](C(=O)N[C@@H](CC(=O)O)C(=O)O)C(C)C` as the compound, how does the Kd read?
Answer: 133 nM

Question: For `CC[C@H](C)[C@H](N)C(=O)N[C@@H](CCC(=O)O)C(=O)N[C@@H](CCC(=O)O)C(=O)N[C@H](C(=O)N[C@@H](CC(=O)O)C(=O)O)C(C)C` [IEEVD], which Kd is on record?
Answer: 426 nM

Question: Which Kd does the source give for H-DDTSRIEEVD-OH here?
Answer: 420 nM

Question: Which Kd does the source give for H-DVEEM-OH [DVEEM] here?
Answer: > 10000 nM
